Results on 50 molecules are retold here after the PolyMetriX glass transition set.

In turn, `*C(=O)c1ccc2c(c1)C(=O)N(c1ccc(-c3ccc(Oc4ccc(C5(C)CC(C)(C)c6ccc(Oc7ccc(-c8ccc(N9C(=O)c%10ccc(*)cc%10C9=O)cc8)cc7C(F)(F)F)cc65)cc4)c(C(F)(F)F)c3)cc1)C2=O` (repeat unit) displayed a glass transition temperature of 252.00 °C.

In turn, `*C(=O)c1ccc2c(c1)C(=O)N(c1cccc(P(=O)(c3ccccc3)c3cccc(N4C(=O)c5ccc(*)cc5C4=O)c3)c1)C2=O` (repeat unit) gave a glass transition temperature of 273.00 °C.

As for `*C(=O)c1ccc2c(c1)C(=O)N(c1ccccc1C(=O)c1ccccc1N1C(=O)c3ccc(*)cc3C1=O)C2=O` (repeat unit), the glass transition temperature worked out at 289.00 °C.

`*C(=O)c1ccc2c(c1)C(=O)N(c1ccccc1Cc1ccccc1N1C(=O)c3ccc(*)cc3C1=O)C2=O` (repeat unit) gave a glass transition temperature of 285.00 °C.

Molecule `*CC(O)COc1c(Cl)cc(C(C)(C)c2cc(Cl)c(OCC(O)COc3ccc(C(C)(C)c4ccc(O*)cc4)cc3)c(Cl)c2)cc1Cl` (repeat unit) showed a glass transition temperature of 100.00 °C.

`*CC(O)COc1ccc(C(C)(C)c2ccc(OCC(O)COc3ccc(NC(=O)CCCC(=O)Nc4ccc(O*)cc4)cc3)cc2)cc1` (repeat unit) displayed a glass transition temperature of 105.00 °C.

Molecule `*CC(O)COc1ccc(C(C)(C)c2ccc(OCC(O)COc3ccc(NC(=O)CCCCC(=O)Nc4ccc(O*)cc4)cc3)cc2)cc1` (repeat unit) returned a glass transition temperature of 112.00 °C.

For the molecule `*CC(O)COc1ccc(C(C)(C)c2ccc(OCC(O)COc3ccc(Oc4ccc(O*)cc4)cc3)cc2)cc1` (repeat unit), the glass transition temperature came to 85.00 °C.

`*CC(O)COc1ccc(C(C)(C)c2ccc(OCC(O)COc3ccc(S(=O)(=O)c4ccc(O*)cc4)cc3)cc2)cc1` (repeat unit) registered a glass transition temperature of 140.00 °C.

For the molecule `*CC(O)COc1ccc(C(C)(C)c2ccc(OCC(O)COc3cccc(NC(=O)C(=O)Nc4cccc(O*)c4)c3)cc2)cc1` (repeat unit), the glass transition temperature worked out at 119.00 °C.

In turn, `*CC(O)COc1ccc(C(C)(C)c2ccc(OCC(O)COc3cccc(NC(=O)Cc4cccc(CC(=O)Nc5cccc(O*)c5)c4)c3)cc2)cc1` (repeat unit) gave a glass transition temperature of 119.00 °C.

The molecule `*CC(O)COc1ccc(C(C)(C)c2ccc(OCC(O)COc3cccc(NC(=O)c4cccc(C(=O)Nc5cccc(O*)c5)c4)c3)cc2)cc1` (repeat unit) had a glass transition temperature of 133.00 °C.

Turning to `*CC(O)COc1ccc(C(C)(C)c2ccc(OCC(O)COc3cccc(O*)c3)cc2)cc1` (repeat unit), the glass transition temperature came to 83.00 °C.

`*CC(O)COc1ccc(S(=O)(=O)c2ccc(O*)c(C)c2)cc1C` (repeat unit) displayed a glass transition temperature of 132.50 °C.

On to `*CC(O)COc1ccc(S(=O)(=O)c2ccc(OCC(O)COc3cccc(O*)c3)cc2)cc1` (repeat unit), for which the glass transition temperature stood at 105.00 °C.

As for `*CCCCCCCCCCCCOc1ccc(C(C)(C)c2ccc(OCOc3ccc(C(C)(C)c4ccc(O*)cc4)cc3)cc2)cc1` (repeat unit), the glass transition temperature was 37.00 °C.

In the case of `*CCCCCCCCCCNC(=O)/C=C(\C)C(=O)N*` (repeat unit), the glass transition temperature was determined as 74.00 °C.

In turn, `*CCCCCCCCCCOc1ccc(N(c2ccccc2)c2ccc(-c3ccc(N(c4ccccc4)c4ccc(O*)cc4)cc3)cc2)cc1` (repeat unit) registered a glass transition temperature of 90.00 °C.

As for `*CCCCCCCCOc1ccc(C(C)(C)c2ccc(O*)cc2)cc1` (repeat unit), the glass transition temperature came out at 19.60 °C.

As to `*CCCCCCOc1ccc(C(C)(C)c2ccc(O*)cc2)cc1` (repeat unit), the glass transition temperature came to 36.00 °C.

`*CCCCCCOc1ccc(N(c2ccccc2)c2ccc(-c3ccc(N(c4ccccc4)c4ccc(O*)cc4)cc3)cc2)cc1` (repeat unit) had a glass transition temperature of 85.00 °C.

As to `*CCOC(=O)C1CCC(C(=O)OCCOc2ccc(C(C)(C)c3ccc(O*)cc3)cc2)CC1` (repeat unit), the glass transition temperature was 57.00 °C.

`*CCOC(=O)c1ccc(C(=O)OCCOc2ccc(C(C)(C)c3ccc(O*)cc3)cc2)cc1` (repeat unit): the glass transition temperature came to 83.00 °C.

In the case of `*COc1ccc(C(C)(C)c2ccc(Oc3ccc(*)n3-c3ccc(C#N)cc3)cc2)cc1` (repeat unit), the glass transition temperature was 73.13 °C.

For `*OP(=O)(Oc1ccc(C(C)(C)c2ccc(*)cc2)cc1)Oc1c(Cl)cc(Cl)cc1Cl` (repeat unit), the glass transition temperature is 94.00 °C.

For `*OS(=O)(=O)c1cc(S(=O)(=O)Oc2ccc(C3(c4ccc(*)c(C)c4)CCCCC3)cc2C)ccc1C` (repeat unit), the glass transition temperature was 141.00 °C.

`*OS(=O)(=O)c1cccc(S(=O)(=O)Oc2ccc(C(C)(CC)c3ccc(*)cc3)cc2)c1` (repeat unit) returned a glass transition temperature of 147.00 °C.

The molecule `*Oc1cc(Oc2ccc(C(C)(C)c3ccc(*)cc3)cc2)cc(C(=O)Oc2ccc(/N=N/c3ccc(C#N)cc3)cc2)c1` (repeat unit) came in with a glass transition temperature of 163.00 °C.

With `*Oc1ccc(-c2ccc(-c3ccc(Oc4ccc(C(C)(C)c5ccc(*)cc5)cc4)cc3)cc2)cc1` (repeat unit), the glass transition temperature came out at 182.00 °C.

As for `*Oc1ccc(-c2ccc(Oc3ccc(C(C)(C)c4ccc(*)cc4)cc3)cc2)cc1` (repeat unit), the glass transition temperature was determined as 154.00 °C.

On to `*Oc1ccc(C(C)(c2ccccc2)c2ccc(Oc3c(F)c(F)c(C(=O)c4c(F)c(F)c(*)c(F)c4F)c(F)c3F)cc2)cc1` (repeat unit), for which the glass transition temperature turned out to be 175.00 °C.

In turn, `*Oc1ccc(S(=O)(=O)c2ccc(Oc3ccc(-c4ccc(-c5ccc(*)c(C(F)(F)F)c5)cc4)cc3C(F)(F)F)cc2)cc1` (repeat unit) displayed a glass transition temperature of 214.00 °C.

For the molecule `*Oc1ccc(S(=O)(=O)c2ccc(Oc3ccc(C(C)(C)c4ccc(OCCCCOc5ccc(C(C)(C)c6ccc(*)cc6)cc5)cc4)cc3)cc2)cc1` (repeat unit), the glass transition temperature was 140.00 °C.

With `*c1cc(C(c2ccc(OCCN(CC)c3ccc(/C=C/C4=CC(=C(C#N)C#N)CC(C)(C)C4)cc3)c(N3C(=O)c4ccc(Oc5ccc6c(c5)C(=O)N(*)C6=O)cc4C3=O)c2)(C(F)(F)F)C(F)(F)F)ccc1OCCN(CC)c1ccc(/C=C/C2=CC(=C(C#N)C#N)CC(C)(C)C2)cc1` (repeat unit), the glass transition temperature came to 202.00 °C.

`*c1cc(C(c2ccc(OCc3cc(OCCN(C)c4ccc(/C=C/C5=CC(=C(C#N)C#N)CC(C)(C)C5)cc4)cc(OCCN(C)c4ccc(/C=C/C5=CC(=C(C#N)C#N)CC(C)(C)C5)cc4)c3)c(N3C(=O)c4ccc(Oc5ccc6c(c5)C(=O)N(*)C6=O)cc4C3=O)c2)(C(F)(F)F)C(F)(F)F)ccc1OCc1cc(OCCN(C)c2ccc(/C=C/C3=CC(=C(C#N)C#N)CC(C)(C)C3)cc2)cc(OCCN(C)c2ccc(/C=C/C3=CC(=C(C#N)C#N)CC(C)(C)C3)cc2)c1` (repeat unit) yielded a glass transition temperature of 178.00 °C.

`*c1ccc(-c2ccc(Oc3ccc(C4(C)CC(C)(C)c5ccc(Oc6ccc(-c7ccc(N8C(=O)c9ccc(Oc%10ccc(C(C)(C)c%11ccc(Oc%12ccc%13c(c%12)C(=O)N(*)C%13=O)cc%11)cc%10)cc9C8=O)cc7)cc6C(F)(F)F)cc54)cc3)c(C(F)(F)F)c2)cc1` (repeat unit) showed a glass transition temperature of 241.00 °C.

The molecule `*c1ccc(OCC2CCC(COc3ccc(-n4c(=O)c5cc6c(=O)n(*)c(=O)c6cc5c4=O)cc3)CC2)cc1` (repeat unit) returned a glass transition temperature of 306.70 °C.

`*c1ccc(OCCN(CC)c2ccc(-c3ccc(C(=C(C#N)C#N)c4ccc(N(CC)CC)cc4)s3)cc2)c(-c2cc(-c3ccccc3)c3cc(Oc4ccc5nc(*)cc(-c6ccccc6)c5c4)ccc3n2)c1` (repeat unit) registered a glass transition temperature of 215.00 °C.

In the case of `*c1ccc(OCOc2ccc(-c3nc(-c4ccc([N+](=O)[O-])cc4)oc3*)cc2)cc1` (repeat unit), the glass transition temperature was found to be 194.00 °C.

For the molecule `*c1ccc(Oc2c(F)c(F)c(C(=O)c3c(F)c(F)c(Oc4ccc(C5(*)OC(=O)c6ccccc65)cc4)c(F)c3F)c(F)c2F)cc1` (repeat unit), the glass transition temperature was 215.00 °C.

In turn, `*c1ccc(Oc2ccc(-c3c(-c4ccccc4)c(-c4ccc(-c5nc6ccccc6c(*)c5-c5ccccc5)cc4)nc4ccccc34)cc2)cc1` (repeat unit) yielded a glass transition temperature of 273.00 °C.

Regarding `*c1ccc(Oc2ccc(-c3c4ccccc4c(-c4ccc(Oc5ccc(-c6c7c(c(*)c8ccccc68)C(=O)N(c6ccccc6)C7=O)cc5)c(C(F)(F)F)c4)c4ccccc34)cc2C(F)(F)F)cc1` (repeat unit), the glass transition temperature was 361.00 °C.

On to `*c1ccc(Oc2ccc(-c3cc(-c4ccc(Oc5ccc(-c6cc(*)nc7ccccc67)cc5)cc4)c4ccccc4n3)cc2)cc1` (repeat unit), for which the glass transition temperature stood at 300.00 °C.

`*c1ccc(Oc2ccc(-c3ccc(Oc4ccc(-c5ncc(*)o5)cc4C(F)(F)F)cc3)cc2)c(C(F)(F)F)c1` (repeat unit) displayed a glass transition temperature of 200.00 °C.

Molecule `*c1ccc(Oc2ccc(-c3ccc(Oc4ccc(-n5c(=O)c6cc7c(=O)n(*)c(=O)c7cc6c5=O)cc4)cc3)cc2)cc1` (repeat unit) returned a glass transition temperature of 300.00 °C.

As for `*c1ccc(Oc2ccc(N3C(=O)c4ccc(C(=O)c5ccc6c(c5)C(=O)N(c5ncc(*)s5)C6=O)cc4C3=O)cc2)cc1` (repeat unit), the glass transition temperature was found to be 320.20 °C.

As for `*c1ccc(Oc2ccc(P(=O)(c3ccccc3)c3ccc(Oc4ccc(-c5ccc(*)nc5)cc4)cc3)cc2)cc1` (repeat unit), the glass transition temperature was determined as 257.00 °C.

`*c1ccc(Oc2ccc(S(=O)(=O)c3ccc(Oc4ccc(-c5cc(*)n(-c6ccccc6)n5)cc4)cc3)cc2)cc1` (repeat unit): the glass transition temperature worked out at 235.00 °C.

In the case of `*c1ccc2c(c1)C(=O)N(c1cc(C(c3ccc(OCCN(CC)c4ccc(/N=N/c5ccc([N+](=O)[O-])cc5)cc4)c(N4C(=O)c5ccc(C(*)(C(F)(F)F)C(F)(F)F)cc5C4=O)c3)(C(F)(F)F)C(F)(F)F)ccc1OCCN(CC)c1ccc(/N=N/c3ccc([N+](=O)[O-])cc3)cc1)C2=O` (repeat unit), the glass transition temperature worked out at 199.00 °C.

Molecule `*c1ccc2c(c1)C(=O)N(c1ccc(-c3ccc(Oc4ccc5c(c4)C(C)(c4ccc(Oc6ccc(-c7ccc(N8C(=O)c9ccc(C(*)(C(F)(F)F)C(F)(F)F)cc9C8=O)cc7)cc6C(F)(F)F)cc4)CC5(C)C)c(C(F)(F)F)c3)cc1)C2=O` (repeat unit) yielded a glass transition temperature of 262.00 °C.
